For the test, the target named is T1, succinate dehydrogenase (SDH) from mitochondria of R. solani (Rhizoctonia solani, UniProt A0A0K6FYZ3+A0A0K6G4J6+A0A0K6G6J3).
T1 construct: gene sdhB; native complex II in isolated mitochondria, not purified; with Succinate dehydrogenase [ubiquinone] flavoprotein subunit, mitochondrial
The test is described as follows: succinate:ubiquinone/DCPIP reductase inhibition in isolated mitochondria, absorbance at […] nm. Format: biochemical.

T1 sequence (A0A0K6FYZ3 29-278): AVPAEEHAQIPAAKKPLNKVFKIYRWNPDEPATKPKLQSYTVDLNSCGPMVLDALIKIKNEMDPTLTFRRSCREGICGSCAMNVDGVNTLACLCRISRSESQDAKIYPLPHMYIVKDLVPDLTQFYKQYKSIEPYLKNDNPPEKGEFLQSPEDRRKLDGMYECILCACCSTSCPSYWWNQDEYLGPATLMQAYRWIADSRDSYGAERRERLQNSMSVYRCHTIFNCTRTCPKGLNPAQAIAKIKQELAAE
T1 sequence (A0A0K6G4J6 37-154): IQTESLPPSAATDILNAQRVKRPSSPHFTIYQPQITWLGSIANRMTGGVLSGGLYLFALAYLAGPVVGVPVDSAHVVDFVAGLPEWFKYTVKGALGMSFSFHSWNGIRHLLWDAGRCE
T1 sequence (A0A0K6G6J3 32-176): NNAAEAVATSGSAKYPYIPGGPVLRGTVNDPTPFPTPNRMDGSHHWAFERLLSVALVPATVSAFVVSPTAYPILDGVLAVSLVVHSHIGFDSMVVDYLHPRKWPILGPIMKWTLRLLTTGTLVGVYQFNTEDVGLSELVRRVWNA
T1 sequence (A0A0K6G1V0 48-643 partner): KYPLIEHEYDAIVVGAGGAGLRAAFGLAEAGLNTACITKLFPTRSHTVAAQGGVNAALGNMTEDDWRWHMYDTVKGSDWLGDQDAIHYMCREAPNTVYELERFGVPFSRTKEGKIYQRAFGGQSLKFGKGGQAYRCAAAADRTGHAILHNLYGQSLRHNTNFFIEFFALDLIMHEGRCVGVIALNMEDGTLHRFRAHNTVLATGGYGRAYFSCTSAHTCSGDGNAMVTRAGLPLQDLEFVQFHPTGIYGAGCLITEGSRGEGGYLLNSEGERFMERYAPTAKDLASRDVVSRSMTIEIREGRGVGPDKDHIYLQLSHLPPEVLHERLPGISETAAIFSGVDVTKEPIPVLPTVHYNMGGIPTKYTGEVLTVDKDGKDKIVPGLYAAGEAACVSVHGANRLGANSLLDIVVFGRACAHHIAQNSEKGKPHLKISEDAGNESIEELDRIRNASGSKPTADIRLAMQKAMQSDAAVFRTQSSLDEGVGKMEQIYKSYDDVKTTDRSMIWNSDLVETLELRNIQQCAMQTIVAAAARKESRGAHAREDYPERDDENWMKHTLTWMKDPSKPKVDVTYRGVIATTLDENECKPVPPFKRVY

Turning to `CC(C)c1cccc(NC(=O)c2ccccc2NC(=O)c2cn(C)nc2C(F)F)c1` [compound 17], the IC50 is 127 µM.

For `O=C(Nc1ccccc1)c1ccccc1I` [benodanil], the IC50 is 192 µM.

In turn, `Cn1cc(C(=O)Nc2ccccc2C(=O)Nc2cccc(C(F)(F)F)c2)c(C(F)F)n1` [compound 18] gave an IC50 of 130 µM.

Usually IC50 stands for the midpoint of a concentration-inhibition curve. A lower IC50 goes with inhibition by little substance.

These data come from PMC7570671, “Synthesis and Biological Evaluation of Novel Benodanil-Heterocyclic Carboxamide Hybrids as a Potential Succinate Dehydrogenase Inhibitors” (Molecules, 2020).
